What is called AUC is concentration integrated over time. Broadly, the Ki is a dissociation constant, usually derived from enzyme kinetics or from competition with a known ligand.

The nature of series [1]: Xenograft tumor growth inhibition assay, LNCaP (prostate). The note with it: male, NSG, in vivo, mouse LNCaP xenograft, oral, read-out: AUC, mouse efficacy, Prostate (LNCaP). The series is classed as in vivo, Male NSG mice. As to the method: (§1) The effect of compound of Example 32, 35 and Compound X to inhibit the growth of SKM-1_FP1 and LNCaP-FGC xenograft tumors was evaluated. Female SCID Beige mice (Charles River) were utilized for the SKM-1_FP1 flank xenograft model. Male NSG mice (JAX Labs) were used for the LNCaP-FGC study. Cells were suspended in PBS, mixed with Matrigel (phenol red free, Becton Dickinson Biosciences Discovery Labware) in a ratio of 1:4 (V/V) and inoculated subcutaneously into the flank (five million cells per site) of the mice. Inoculated mice were randomized into groups and treatment was initiated when mean tumor volume was 0.2-0.25 cm^3. The compounds were administered orally in (volume %): 1.5% DMSO, 30% PEG 400, and 68.5% Phosol 53 MCT. Tumor growth in the flank was assessed by measuring tumor size with calipers and calculating volume using the formula (L×W^2/2). Study groups were terminated prior to tumor volume reaching 3 cm^3. Inhibition of tumor growth was assessed at the time the vehicle-treated group was terminated by calculating the ratio of the mean volume of the test drug group to the mean volume of the untreated (control) group (T/C) and calculating percent tumor growth inhibition (% TGI).

In series [2] the test system is LNCaP-FGC xenograft tumors. The description is as above. Format: in vivo, Male NSG mice. The note with it: mouse LNCaP xenograft, oral. As to the method:
as §1

In the next series the target is BRD4 (BDII_E352-M457) (Homo sapiens (Human), UniProt O60885). The series is described as follows: TR-FRET bromodomain binding assay, BRD4 BDII. As to conditions: mean Ki, calculated from IC50, probe Kd and probe concentration. In short, it runs like this: (§2)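 Probe displacement measured by TR-FRET after 1 h at room temperature, in 20 mM sodium phosphate pH 6.0 and 2% DMSO. BDI used 12 nM protein with 100 nM probe, BDII 4 nM with 30 nM probe, each with 1 nM europium antibody. Ki derived from fitted IC50, probe Kd and probe level.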

The next series has as its target BRD4 (BDI_K57-E168) (Homo sapiens (Human), UniProt O60885). The series is described as follows: TR-FRET bromodomain binding assay, BRD4 BDI. The note with it: mean Ki, calculated from IC50, probe Kd and probe concentration. In short, it runs like this:
as §2

The nature of series [3]: Xenograft tumor growth inhibition assay, SKM-1 (AML). The series is classed as in vivo, Female SCID Beige mice. The note with it: female, SCID Beige, in vivo, mouse SKM-1 xenograft, oral, read-out: AUC, mouse efficacy, AML (SKM-1).
Series [4] has as its system SKM-1_FP1 xenograft tumors. The description is as above. The series is classed as in vivo, Female SCID Beige mice. The note with it: mouse SKM-1 xenograft, oral.
Series [5] in a line: Fourteen day rat toxicology study, maximum tolerated exposure. As to conditions: for AUC at 14 day: po. As to the method:
Compounds were dosed orally once daily, in Sprague-Dawley rats.

Where [6] appears, read: Sprague-Dawley, rat, in vivo, 14 day.
Setting [7] is: Sprague-Dawley, rat, in vivo, 30 mg/kg.

Consider `CCS(=O)(=O)Nc1ccc(Oc2ccc(F)cc2F)c(-c2cn(C)c(=O)c3[nH]ccc23)c1` [Compound X, N-[4-(2,4-difluorophenoxy)-3-(6-methyl-7-oxo-6,7-dihydro-1H-pyrrolo[2,3-c]pyridin-4-yl)phenyl]ethanesulfonamide, reference compound], for which the exposure (AUC) in series [1] (dose 1 mg/kg) and in series [3] (dose 1 mg/kg) was 1200 ng·h/mL throughout. In series [2] (dose 1 mg/kg), the “% TGI, Prostate (LNCaP)” value came to 64%. Besides, the Ki on BRD4 (BDII_E352-M457) is 0.952 nM; at BRD4 (BDI_K57-E168) it was 2.09 nM. For the same compound, the “% TGI, AML (SKM-1)” value in series [4] (dose 1 mg/kg) was 76%. In series [5] (Sprague-Dawley, rat, in vivo, 1 mg/kg), this compound had an AUC at 14 day of 725 ng·h/mL. Also, the “AUC ratio (rat maximum tolerated exposure/mouse efficacious exposure) Prostate (LNCaP)” value in series [5] (exposure margin versus mouse LNCaP xenograft) is given as 0.6x. The “AUC ratio (rat maximum tolerated exposure/mouse efficacious exposure) AML (SKM-1)” value in series [5] (exposure margin versus mouse SKM-1 xenograft) turned out to be 0.6x.
Take `Cc1cccc(C)c1Oc1ccc(C(C)(C)O)cc1-c1cn(C)c(=O)c2[nH]c(C(=O)NC(C)(C)C)cc12` [Example 32, N-tert-butyl-4-[2-(2,6-dimethylphenoxy)-5-(2-hydroxypropan-2-yl)phenyl]-6-methyl-7-oxo-6,7-dihydro-1H-pyrrolo[2,3-c]pyridine-2-carboxamide]: the AUC in series [1] (dose 30 mg/kg) was 12600 ng·h/mL; in series [3] (dose 9.4 mg/kg), 5000 ng·h/mL. Moreover, the “% TGI, Prostate (LNCaP)” value in series [2] (dose 30 mg/kg) worked out at 60%. The Ki is 2.8 nM on BRD4 (BDII_E352-M457) and 599 nM on BRD4 (BDI_K57-E168). Moreover, the “% TGI, AML (SKM-1)” value in series [4] (dose 9.4 mg/kg) turned out to be 76%. Besides, the “AUC ratio (rat maximum tolerated exposure/mouse efficacious exposure) AML (SKM-1)” value in series [5] (setting [6]) turned out to be 14x. In series [5] (setting [6]), the “AUC ratio (rat maximum tolerated exposure/mouse efficacious exposure) Prostate (LNCaP)” value came out at 5.5x. This compound yielded an AUC at 14 day in series [5] (setting [7]) of 69200 ng·h/mL.
For `CCNC(=O)c1cc2c(-c3cc(C(C)(C)O)ccc3Oc3c(C)cc(F)cc3C)cn(C)c(=O)c2[nH]1` [Example 35, N-ethyl-4-[2-(4-fluoro-2,6-dimethylphenoxy)-5-(2-hydroxypropan-2-yl)phenyl]-6-methyl-7-oxo-6,7-dihydro-1H-pyrrolo[2,3-c]pyridine-2-carboxamide], the values for the AUC in series [1] (dose 4.7 mg/kg) and in series [3] (dose 4.7 mg/kg) were 1100 ng·h/mL and 840 ng·h/mL, respectively. Moreover, the “% TGI, Prostate (LNCaP)” value in series [2] (dose 4.7 mg/kg) is recorded as 64%. Also, the “% TGI, AML (SKM-1)” value in series [4] (dose 4.7 mg/kg) is listed as 74%. The compound further gave an AUC at 14 day in series [5] (setting [7]) of 27500 ng·h/mL.
Regarding `CCNC(=O)c1cc2c(-c3cc(C4(O)COC4)ccc3Oc3c(C)cc(F)cc3C)cn(C)c(=O)c2[nH]1` [Example 123, N-ethyl-4-[2-(4-fluoro-2,6-dimethylphenoxy)-5-(3-hydroxyoxetan-3-yl)phenyl]-6-methyl-7-oxo-6,7-dihydro-1H-pyrrolo[2,3-c]pyridine-2-carboxamide], the Ki on BRD4 (BDII_E352-M457) was 1 nM; at BRD4 (BDI_K57-E168), 168 nM.
For `CCNC(=O)c1cc2c(-c3cc(C(C)(C)O)cnc3Oc3c(C)cc(C(C)(C)O)cc3C)cn(C)c(=O)c2[nH]1` [Example 124, N-ethyl-4-{5-(2-hydroxypropan-2-yl)-2-[4-(2-hydroxypropan-2-yl)-2,6-dimethylphenoxy]pyridin-3-yl}-6-methyl-7-oxo-6,7-dihydro-1H-pyrrolo[2,3-c]pyridine-2-carboxamide], in that order: 1.7 nM and 269 nM.
For the compound `Cc1cc(C(C)(C)O)cc(C)c1Oc1ncc(C(C)(C)O)cc1-c1cn(C)c(=O)c2[nH]c(C(=O)NC(C)(C)C)cc12` [Example 125, N-tert-butyl-4-{5-(2-hydroxypropan-2-yl)-2-[4-(2-hydroxypropan-2-yl)-2,6-dimethylphenoxy]pyridin-3-yl}-6-methyl-7-oxo-6,7-dihydro-1H-pyrrolo[2,3-c]pyridine-2-carboxamide], the values for the Ki on BRD4 (BDII_E352-M457) and on BRD4 (BDI_K57-E168) were 3.5 nM and 140 nM, respectively.
Turning to `CCNC(=O)c1cc2c(-c3cc(C(C)(O)CO)ccc3Oc3c(C)cccc3C(F)(F)F)cn(C)c(=O)c2[nH]1` (stereo not drawn) [Example 126, 4-{5-(1,2-dihydroxypropan-2-yl)-2-[2-methyl-6-(trifluoromethyl)phenoxy]phenyl}-N-ethyl-6-methyl-7-oxo-6,7-dihydro-1H-pyrrolo[2,3-c]pyridine-2-carboxamide], the Ki on BRD4 (BDII_E352-M457) was 6.3 nM; on BRD4 (BDI_K57-E168) it was 1510 nM.
Regarding `Cc1cccc(C(F)(F)F)c1Oc1ccc(C(C)(O)CO)cc1-c1cn(C)c(=O)c2[nH]c(C(=O)NC(C)(C)C)cc12` (stereo not drawn) [Example 127, N-tert-butyl-4-{5-(1,2-dihydroxypropan-2-yl)-2-[2-methyl-6-(trifluoromethyl)phenoxy]phenyl}-6-methyl-7-oxo-6,7-dihydro-1H-pyrrolo[2,3-c]pyridine-2-carboxamide], the Ki on BRD4 (BDII_E352-M457) is 20.5 nM; at BRD4 (BDI_K57-E168), 6580 nM.
For `CCNC(=O)c1cc2c(-c3cc(C(C)(O)CCCO)ccc3Oc3c(C)cc(F)cc3C)cn(C)c(=O)c2[nH]1` (stereo not drawn) [Example 128, 4-[5-(2,5-dihydroxypentan-2-yl)-2-(4-fluoro-2,6-dimethylphenoxy)phenyl]-N-ethyl-6-methyl-7-oxo-6,7-dihydro-1H-pyrrolo[2,3-c]pyridine-2-carboxamide], the values for the Ki on BRD4 (BDII_E352-M457) and on BRD4 (BDI_K57-E168) were 1.3 nM and 469 nM, respectively.
For `CCNC(=O)c1cc2c(-c3cc(C4(O)CCOCC4)ccc3Oc3c(C)cc(F)cc3C)cn(C)c(=O)c2[nH]1` [Example 129, N-ethyl-4-[2-(4-fluoro-2,6-dimethylphenoxy)-5-(4-hydroxyoxan-4-yl)phenyl]-6-methyl-7-oxo-6,7-dihydro-1H-pyrrolo[2,3-c]pyridine-2-carboxamide], in that order: 2.3 nM and 649 nM.
For “N-tert-butyl-4-[2-(2,6-dimethylphenoxy)-5-(2-hydroxypropan-2-yl)pyridin-3-yl]-6-methyl-7-oxo-6,7-dihydro-1H-pyrrolo[2,3-c]pyridine-2-carboxamide [Example 50]”, in that order: 1.3 nM and 318 nM.

The record behind these values is patent publication US10633379B2, “Bromodomain inhibitors” (AbbVie Inc., priority 2016, dated 2020).
